Blank lines part the entries; values can stand above or below the molecule they belong to.
What was measured:
Protein Kinase A = assay: SCT-stimulated respiration in primary brown adipocytes after pretreatment with the PKA inhibitor H89; type: cell-based, Mus musculus; details: H89 50 μM pretreatment (FIG. 10F)
Experimental: F: Thermogenic effect of SCT depends on Protein Kinase A activity. Fold increase of basal leak respiration after stimulation with ISO, SCT and vehicle (assay medium) w/o proteinkinase A inhibitor H89 (50 μM). Inhibitor was injected together with olgio prior to addition of stimulators.
(§1) Method: To test whether SCT can activate thermogenesis in brown adipocytes, we measured UCP1-mediated uncoupled respiration in cultured adherent intact primary brown adipocytes, according to a protocol recently established in our lab (Li Y, Fromme T, Schweizer S, Schöttl T, Klingenspor M. EMBO Rep. 2014 October; 15(10):1069-76. doi: 10.15252/embr.201438775; Li Y, Fromme T, Klingenspor M. Meaningful respirometric measurements of UCP1-mediated thermogenesis. Biochimie. 2017 March; 134:56-61. doi: 10.1016/j.biochi.2016.12.005.). The cellular oxygen consumption rate (OCR) of primary adipocytes was determined using an XF96 Extracellular Flux Analyzer (Seahorse Bioscience). […]
All respiration assays were performed in the presence of bovine serum albumin to buffer free fatty acid levels in the respiration medium. Basal respiration was measured in untreated cells. […] UCP1 mediated uncoupled respiration was determined after isoproterenol or secretin stimulation. Maximum respiratory capacity was assessed after FCCP (Sigma-Aldrich) addition (1 μM). […]

[1] = test system: primary brown adipocytes from UCP1 knockout mice; assay: Microplate respirometry (oxygen consumption rate) in primary brown adipocytes from UCP1 knockout mice; type: cell-based, Mus musculus
Experimental: For culturing primary adipocytes male 129S1/SvImJ mice ([…] or UCP1-KO mice and wildtype littermates) at the age of 5-6 weeks were used for the dissection of inguinal and epidydimal white adipose tissue and interscapular brown adipose tissue depots. The tissue was carefully minced and treated with collagenase for 45 min at 37° C. The homogenate was filtered through a 250 μm nylon mesh and centrifuged at 500 g to collect the stromal vascular fraction (SVF). The SVF cell pellet was rinsed and seeded into XF96 V3-PS cell culture microplate (Seahorse Bioscience). After reaching confluency, induction medium containing 10% fetal bovine serum (FBS), 0.5 mM isobutylmethylxanthine, 125 nM indomethacin, 1 mM dexamethasone, 850 nM insulin and 1 nM T3 was added. After 2 days of induction, cells were maintained in differentiation media (10% FBS, 850 nM insulin and 1 nM T3). Medium was changed every two days. Respiration was measured on day 7 of differentiation. For determination of mRNA levels cells were stimulated at the 7th day of differentiation for 6 hours with secretin (rat, Tocris, Art Nr 1919) or isoproterenol (Sigma-Aldrich, Art Nr. 16504-100MG) and harvested subsequently. Oxygen consumption rate (OCR) was measured at 37° C. using a microplate respirometer (XF96 extracellular flux analyzer, Seahorse Bioscience). At day 7, the differentiation medium was replaced with prewarmed, unbuffered assay medium (DMEM basal medium supplemented with 25 mM glucose, 2 mM sodium pyruvate, 31 mM NaCl, 2 mM GlutaMax and 15 mg/l phenol red, pH 7.4) containing 2% of essentially fatty acid free bovine serum albumin (BSA), and incubated at 37° C. in a room air incubator for 1 h. Basal respiration was measured in untreated cells. […] Maximum respiratory capacity was assessed after FCCP (Sigma-Aldrich) addition (1 μM). […] Oxygen consumption rates were calculated using the Seahorse XF-96 software. […] For induction of OCR by isoproterenol, secretin or FCCP the highest values measured after addition of the respective molecule was used. The “OCR in % of basal OCR” and “OCR in % of FCCP OCR” were calculated as follows: Method: To test whether SCT can activate thermogenesis in brown adipocytes, we measured UCP1-mediated uncoupled respiration in cultured adherent intact primary brown adipocytes, according to a protocol recently established in our lab (Li Y, Fromme T, Schweizer S, Schöttl T, Klingenspor M. EMBO Rep. 2014 October; 15(10):1069-76. doi: 10.15252/embr.201438775; […]. Meaningful respirometric measurements of UCP1-mediated thermogenesis. Biochimie. 2017 March; 134:56-61. doi: 10.1016/j.biochi.2016.12.005.). The cellular oxygen consumption rate (OCR) of primary adipocytes was determined using an XF96 Extracellular Flux Analyzer (Seahorse Bioscience). […]

UCP1 expression [2] = assay: UCP1 mRNA expression (qRT-PCR) in primary adipocytes from interscapular brown adipose tissue; type: cell-based, Mus musculus; details: 0.1 μM secretin or 0.5 μM isoproterenol, 6 hours, normalized to TFIIB (FIG. 4B)
Experimental: (§2) For culturing primary adipocytes male 129S1/SvImJ mice ([…] or UCP1-KO mice and wildtype littermates) at the age of 5-6 weeks were used for the dissection of inguinal and epidydimal white adipose tissue and interscapular brown adipose tissue depots. The tissue was carefully minced and treated with collagenase for 45 min at 37° C. The homogenate was filtered through a 250 μm nylon mesh and centrifuged at 500 g to collect the stromal vascular fraction (SVF). The SVF cell pellet was rinsed and seeded into XF96 V3-PS cell culture microplate (Seahorse Bioscience). After reaching confluency, induction medium containing 10% fetal bovine serum (FBS), 0.5 mM isobutylmethylxanthine, 125 nM indomethacin, 1 mM dexamethasone, 850 nM insulin and 1 nM T3 was added. […] Respiration was measured on day 7 of differentiation. […] RNA was eluted in 50 μl nuclease-free water and RNA concentration was determined spectrophotometrically (Infinite 200 PRO NanoQuant, Tecan, Männedorf/Switzerland). Reverse transcription into cDNA was performed with 500 ng RNA in a final volume of 10 μl (Quantitect Reverse Transcription Kit, Quiagen, Hilden/Germany). qRT-PCR was conducted on 384 well plates in a total volume of 12.5 μl comprising 6.25 μl SensiMix SYBR No-ROX (Bioline, London/UK), 250 nM forward and reverse primers, and 1 μl template cDNA (LightCycler 480 System, Roche Diagnostics, Rotkreuz/Switzerland). […]

primary brown adipocytes = assay: Microplate respirometry (oxygen consumption rate) in differentiated primary brown adipocytes of wildtype mice; type: cell-based, Mus musculus
Experimental: For culturing primary adipocytes male 129S1/SvImJ mice ([…] or UCP1-KO mice and wildtype littermates) at the age of 5-6 weeks were used for the dissection of inguinal and epidydimal white adipose tissue and interscapular brown adipose tissue depots. The tissue was carefully minced and treated with collagenase for 45 min at 37° C. The homogenate was filtered through a 250 μm nylon mesh and centrifuged at 500 g to collect the stromal vascular fraction (SVF). The SVF cell pellet was rinsed and seeded into XF96 V3-PS cell culture microplate (Seahorse Bioscience). After reaching confluency, induction medium containing 10% fetal bovine serum (FBS), 0.5 mM isobutylmethylxanthine, 125 nM indomethacin, 1 mM dexamethasone, 850 nM insulin and 1 nM T3 was added. After 2 days of induction, cells were maintained in differentiation media (10% FBS, 850 nM insulin and 1 nM T3). Medium was changed every two days. Respiration was measured on day 7 of differentiation. For determination of mRNA levels cells were stimulated at the 7th day of differentiation for 6 hours with secretin (rat, Tocris, Art Nr 1919) or isoproterenol (Sigma-Aldrich, Art Nr. 16504-100MG) and harvested subsequently. Oxygen consumption rate (OCR) was measured at 37° C. using a microplate respirometer (XF96 extracellular flux analyzer, Seahorse Bioscience). At day 7, the differentiation medium was replaced with prewarmed, unbuffered assay medium (DMEM basal medium supplemented with 25 mM glucose, 2 mM sodium pyruvate, 31 mM NaCl, 2 mM GlutaMax and 15 mg/l phenol red, pH 7.4) containing 2% of essentially fatty acid free bovine serum albumin (BSA), and incubated at 37° C. in a room air incubator for 1 h. Basal respiration was measured in untreated cells. Coupled respiration was inhibited by oligomycin treatment (5 μM). […] Maximum respiratory capacity was assessed after FCCP (Sigma-Aldrich) addition (1 μM). Finally, mitochondrial respiration was blocked by antimycin A (Sigma-Aldrich) (5 μM) treatment and the residual OCR was considered to be due to non-mitochondrial reactions. Oxygen consumption rates were calculated using the Seahorse XF-96 software. Data were exported and reconstructed in GraphPad Prism 4.0 software. For each condition the lowest OCR after antimycin A addition was subtracted from all other values. Respiration rates following oligomycin addition were defined as basal OCR. For induction of OCR by isoproterenol, secretin or FCCP the highest values measured after addition of the respective molecule was used. The “OCR in % of basal OCR” and “OCR in % of FCCP OCR” were calculated as follows: Method: To test whether SCT can activate thermogenesis in brown adipocytes, we measured UCP1-mediated uncoupled respiration in cultured adherent intact primary brown adipocytes, according to a protocol recently established in our lab (Li Y, Fromme T, Schweizer S, Schöttl T, Klingenspor M. EMBO Rep. 2014 October; 15(10):1069-76. doi: 10.15252/embr.201438775; […]. Meaningful respirometric measurements of UCP1-mediated thermogenesis. Biochimie. 2017 March; 134:56-61. doi: 10.1016/j.biochi.2016.12.005.). The cellular oxygen consumption rate (OCR) of primary adipocytes was determined using an XF96 Extracellular Flux Analyzer (Seahorse Bioscience). Briefly, primary adipocytes were cultured and differentiated in XF96 microplates. At day 7 of differentiation, cells were washed once with prewarmed, unbuffered assay medium (DMEM basal medium supplemented with 25 mM glucose, 31 mM NaCl, 2 mM GlutaMax and 15 mg/l phenol red, pH 7.4) (basal assay medium) and then the medium was replaced with basal assay medium containing 1-2% essentially fatty acid free bovine serum albumin (BSA), and incubated at 37° C. in a room air incubator for 1 h. The drug injections ports of the sensor cartridges were loaded with the assay reagents at 10× in basal assay medium (no BSA). All respiration assays were performed in the presence of bovine serum albumin to buffer free fatty acid levels in the respiration medium. […]

UCP1 expression [3] = assay: UCP1 mRNA expression (qRT-PCR) in primary adipocytes from inguinal white adipose tissue; type: cell-based, Mus musculus; details: 0.1 μM secretin or 0.5 μM isoproterenol, 6 hours, normalized to TFIIB (FIG. 4A)
Experimental: as §2

adrenergic β-receptors = assay: SCT- and ISO-stimulated respiration in primary brown adipocytes after propranolol pretreatment; type: cell-based, Mus musculus
Experimental: SCT- and ISO-stimulated respiration after 1 h pretreatment with different concentrations propranolol, a non-selective blocker of adrenergic β-receptors.
as §1, with “Bioscience). Briefly, primary adipocytes were cultured and differentiated in XF96 microplates.” for “Bioscience).”
All respiration assays were performed in the presence of bovine serum albumin to buffer free fatty acid levels in the respiration medium. Basal respiration was measured in untreated cells. […] UCP1 mediated uncoupled respiration was determined after isoproterenol or secretin stimulation. Maximum respiratory capacity was assessed after FCCP (Sigma-Aldrich) addition (1 μM). […] Oxygen consumption rates were automatically calculated by the Seahorse XF-96 software. […]

[4] = target: secretin receptor (mouse, on primary brown adipocytes) (mouse) (UniProt Q5FWI2); assay: cell-based or functional assay
Chain of UniProt Q5FWI2 (Q5FWI2 29-447): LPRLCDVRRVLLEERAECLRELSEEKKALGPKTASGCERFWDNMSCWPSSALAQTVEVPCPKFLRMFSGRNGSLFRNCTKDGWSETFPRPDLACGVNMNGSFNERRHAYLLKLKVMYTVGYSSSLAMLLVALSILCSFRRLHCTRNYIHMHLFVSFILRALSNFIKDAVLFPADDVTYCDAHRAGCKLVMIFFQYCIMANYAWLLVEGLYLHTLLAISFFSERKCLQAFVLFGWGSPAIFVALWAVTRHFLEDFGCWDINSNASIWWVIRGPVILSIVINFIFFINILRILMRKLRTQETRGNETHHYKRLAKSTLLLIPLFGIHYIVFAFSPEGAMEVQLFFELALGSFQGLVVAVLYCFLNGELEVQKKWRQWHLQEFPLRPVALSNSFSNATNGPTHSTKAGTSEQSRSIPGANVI

Molecule: O=S(=O)(NCCNCC=Cc1ccc(Br)cc1)c1cccc2cnccc12 [H89, N-[2-[[3-(4-Bromophenyl)-2-propenyl]amino]ethyl]-5-isoquinolinesulfonamide]
effect on the thermogenic effect of SCT (Protein Kinase A): completely blocked the thermogenic effect of SCT

Molecule: CC(C)NCC(O)c1ccc(O)c(O)c1 (stereo not shown) [isoproterenol, reference compound]
induction of respiration in cells from UCP1 knockout mice ([1]; 129/S1 background, FIG. 3): lacking | response of respiration in UCP1 knockout brown adipocytes ([1]; SCT 10 nM, ISO 500 nM (FIG. 10B)): did not respond | UCP1 mRNA expression in brown adipocytes versus PBS (UCP1 expression [2]): induced UCP1 expression to a similar level as secretin | increase of OCR above basal OCR (primary brown adipocytes; 0.5 μM, after oligomycin, day 7 of differentiation (FIG. 2B)): about 200% | uncoupled OCR as share of maximal uncoupled OCR induced by FCCP (primary brown adipocytes; 0.5 μM, day 7 of differentiation (FIG. 2C)): about 75% | induction of oxygen consumption in cells from wildtype control mice (primary brown adipocytes; 129/S1 background, FIG. 3): increase in oxygen consumption | stimulation of UCP1-mediated thermogenesis (uncoupled respiration) (primary brown adipocytes; SCT 10 nM, ISO 500 nM, N=5 (FIG. 10A)): activate UCP1-dependent thermogenesis | UCP1 mRNA expression in white adipocytes versus PBS (UCP1 expression [3]): induction of UCP1 expression

effect on ISO stimulated respiration (adrenergic β-receptors; 1 h pretreatment with propranolol, dose dependent (FIG. 10D)): blocking the effect of ISO
Molecule: CC(C)NCC(O)COc1cccc2ccccc12 (stereo not shown) [propranolol]
effect on SCT stimulated respiration (adrenergic β-receptors; 1 h pretreatment with propranolol (1 μM; different concentrations in FIG. 10D)): did not attenuate SCT stimulated respiration

oxygen consumption rate (OCR) in primary brown adipocytes, increase above basal OCR, 0.5 µM secretin (% above basal OCR) [4]: 200 | uncoupled OCR in primary brown adipocytes as a share of maximal uncoupled OCR induced by FCCP, 0.5 µM secretin (% of maximal uncoupled OCR) [4]: 75
Molecule: secretin (rat, Tocris, Art Nr 1919) (from UniProt P11384 33-59) (peptide)
